Results from patent publication US7323167B2, “Method of treatment with modified arginine deiminase” (Polaris Group, priority 1997, dated 2008).

Columns and labels:
[1] = target: T1, Mycoplasma arginini arginine deiminase (ADIPROT, ATCC 23243), recombinant, expressed in E. coli, SEQ ID NO: 1 (Mycoplasmopsis arginini, UniProt P23793); assay: Kinetic characterization (Km, Vmax, affinity) of recombinant ADI with arginine, quantifying citrulline production; assay type: biochemical; details: about; range given for the enzymes of the three Mycoplasma species; various concentrations of arginine
T1 construct: made in house; host or cells: E. coli
Text: (§1) Cultures of Mycoplasma arginini (ATCC 23243), Mycoplasma hominus (ATCC 23114) and Mycoplasma arthritides (ATCC 23192) were obtained from the American Type Culture Collection, Rockville, Md.
(§2) Arginine deiminase was cloned from Mycoplasma arginini, Mycoplasma hominus and Mycoplasma arthritides and expressed in E. coli as previously described by S. Misawa et al, J. Biotechnology, 36:145-155 (1994), the disclosure of which is hereby incorporated herein by reference in its entirety. The top amino acid sequence, identified as ADIPROT, is from Mycoplasma arginini; the middle amino acid sequence, identified as ARTADIPRO, is from Mycoplasma arthritides; and the bottom amino acid sequence, identified as HOMADIPRO, is from Mycoplasma hominus. Each of the amino acid sequences are more than 96% conserved. […] The pH optima was determined using a citrate buffer (pH 5-6.5), a phosphate buffer (pH 6.5-7.5) and a borate buffer (pH 7.5-8.5). The Km and Vmax were determined by incubating the enzyme with various concentrations of arginine and quantifying citrulline production. The Km for the various enzymes was about 0.02 to 0.06 μM and the Vmax was about 15-20 μmol/min/mg, the values of which are within standard error of each other.
(§3) The proteins from each of the above three species of Mycoplasma have approximately 95% homology and are readily purified by column chromatography. […]

[2] = target: T2, Mycoplasma hominus arginine deiminase (HOMADIPRO, ATCC 23114), recombinant, expressed in E. coli, SEQ ID NO: 3 (Metamycoplasma hominis, UniProt P41141); assay: as above; assay type: biochemical; details: about; range given for the enzymes of the three Mycoplasma species; various concentrations of arginine
T2 construct: tag not given
Text: as §1, §2, §3

T2 sequence (P41141 whole entry): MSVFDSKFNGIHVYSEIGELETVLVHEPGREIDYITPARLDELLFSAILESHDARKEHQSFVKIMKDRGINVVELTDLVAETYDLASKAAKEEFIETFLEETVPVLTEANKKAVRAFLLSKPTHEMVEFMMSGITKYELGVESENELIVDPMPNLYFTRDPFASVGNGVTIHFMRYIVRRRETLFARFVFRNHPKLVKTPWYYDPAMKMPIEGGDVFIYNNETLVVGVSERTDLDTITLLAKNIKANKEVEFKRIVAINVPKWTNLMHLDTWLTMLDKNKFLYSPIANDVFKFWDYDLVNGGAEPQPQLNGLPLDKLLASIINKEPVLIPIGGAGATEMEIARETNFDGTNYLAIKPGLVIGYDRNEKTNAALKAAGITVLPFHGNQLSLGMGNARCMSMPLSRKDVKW
T1 sequence (P23793 whole entry E126K): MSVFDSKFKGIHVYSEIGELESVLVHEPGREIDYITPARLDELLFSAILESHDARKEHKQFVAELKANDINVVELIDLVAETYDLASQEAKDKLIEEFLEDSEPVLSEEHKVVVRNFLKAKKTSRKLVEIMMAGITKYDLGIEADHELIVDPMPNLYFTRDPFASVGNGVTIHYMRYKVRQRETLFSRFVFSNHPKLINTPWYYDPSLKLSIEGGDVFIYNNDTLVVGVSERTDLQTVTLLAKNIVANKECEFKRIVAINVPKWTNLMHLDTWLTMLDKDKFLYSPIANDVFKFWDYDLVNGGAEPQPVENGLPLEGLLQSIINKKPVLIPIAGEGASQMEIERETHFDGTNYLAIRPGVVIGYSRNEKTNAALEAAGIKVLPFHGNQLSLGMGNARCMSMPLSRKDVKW

Work on N=C(N)NCCC[C@H](N)C(=O)O [arginine, L-arginine] yielded a Vmax [1] of 15 to 20 µmol/min/mg and a Vmax [2] of 15 to 20 µmol/min/mg.
